Measurements reported in article PMC10086185, “Synthesis, radiolabeling, and evaluation of a (4-quinolinoyl)glycyl-2-cyanopyrrolidine analogue for fibroblast activation protein (FAP) PET imaging” (Frontiers in Bioengineering and Biotechnology, 2023).
Where two headings read alike, the source gives them in different places.

Assays:
[1] = test system: FAP; settings: cited from earlier work; for EC50: ref Lindner et al., 2018
[2] = test system: U87MG cells; assay: Cellular uptake of [^18F]3 in U87MG cells; assay type: cell-based; settings: U87 cells; compound 3 10 µM
Method: (§1) Briefly, all cells were divided into the following two groups: A: blocking group and B: vehicle group. All cells were cultured, grouped, and plated (approximately 2*10^6 cells per well) before use. Cells were treated with [^18F]3 (74 KBq) and incubated at 37°C under a 5% CO2 atmosphere. […] Incubated at 37°C for 1 h, the medium from each well was removed, and the cells were washed twice with 1 mL of PBS. The medium and the PBS from each well were combined and counted in a Gamma counter (PerkinElmer Wizard 2470) for radioactivity counts. The cells were then handled with 1 mL of 1 M NaOH, and the lysates were also counted in the Wizard 2470 gamma counter. The uptake ratios for each group were then calculated with this equation: %Dose = […](medium counts + PBS counts + cell lysate counts).

[3] = test system: A549-FAPI cells (human FAP-expressing A549); assay: Cellular uptake of [^18F]3 in A549-FAPI cells; assay type: cell-based; settings: compound 3 10 µM
Method: as §1

[4] = test system: A549-FAPI xenograft tumors; assay: Micro-PET/CT imaging, A549-FAPI xenograft tumors; assay type: in vivo, BALB/c nude mice; settings: A549-FAPI tumors; pre-injection of compound 3, 2 mg/kg
Method: BALB/c nude mice used in this study were obtained from the Animal Center of Sichuan University. Tumor-bearing mouse models were established by the subcutaneous injection of 100 µL of PBS suspension containing approximately 1*10^6 tumor cells to the body side of the subjects. The tumor volume was monitored every day, and the tumor-bearing mice were ready for imaging once the tumor volume reached 0.5 mm^3 (tumor volume can be calculated by this equation: Volume = 0.5 * long tail * short tail *short tail). Micro-PET/CT imaging studies were performed on the IRIS Micro-PET/CT system (Inviscan SAS, France). Tumor-bearing mice were injected with approximately 11.2–14.8 MBq of [^18F]3 (200 µL) via the tail vein under anaesthetization by isoflurane. Static PET images were obtained at designated time points and were reconstructed with a 3D-OSEM algorithm using a Monte Carlo-based accurate detector model. Then, 170 sec-CT acquisition was conducted with 50 kV, 1 mA X-ray output for attenuation correction and anatomical orientation. ROIs (regions of interest) were drawn on the lung, kidney, liver, and tumor by OsiriX software. SUV (standardized uptake value) of the ROIs was directly obtained from OsiriX for each subject according to this formula: SUV = Voxal value (Bq/mL) * Body weight (kg)/(Decay corrected Dose (Bq) * 1,000 (g/kg)).
BALB/c nude mice used in this study were obtained from the Animal Center of Sichuan university. Tumor-bearing mice model were established by the subcutaneous injection of 100 µL of PBS suspension containing approximately 1*10^6 tumor cells to the body side of the subjects. The tumor volume was monitored every day and the tumor-bearing mice were ready for imaging once the tumor volume reach 0.5 mm^3 (tumor volume can be calculated by this equation: Volume = 0.5 * long tail * short tail *short tail). Micro-PET/CT imaging studies were performed on the IRIS Micro-PET/CT system (Inviscan SAS, France). Tumor-bearing mice were injected with approximately 11.2-14.8 MBq of [^18F]3 (200 µL) via tail vein under anaesthetization by isoflurane. Static PET images were obtained at designated time points and were reconstructed with a 3D-OSEM algorithm using a Monte-Carlo based accurate detector model. A 170 sec-CT acquisition was conducted with 50 kV, 1 mA X-ray output for attenuation correction and anatomical orientation. ROIs (regions of interest) were drawn on lung, kidney, liver and tumor by Osirix software. SUV (standardized uptake value) of the ROIs was directly obtained from Osirix for each subject according to this formula: SUV = Voxal value (Bq/mL) * Body weight (kg)/(Decay corrected Dose (Bq) * 1000 (g/kg)).

[5] = FAP, ref Wang et al., 2022, read-out: IC50
[6] = ref Jansen et al., 2013, Jansen et al., 2014, read-out: FAP IC50

N#C[C@@H]1CCCN1C(=O)CNC(=O)c1ccnc2ccc(OCCCN3CCN(C(=O)CN4CCN(CC(=O)O)CCN(CC(=O)O)CCN(CC(=O)O)CC4)CC3)cc12 [FAPI-02]
EC50 [1]: 21 nM

N#C[C@@H]1CC(F)(F)CN1C(=O)CNC(=O)c1ccnc2ccc(OCCCN3CCN(C(=O)CN4CCN(CC(=O)O)CCN(CC(=O)O)CCN(CC(=O)O)CC4)CC3)cc12 [FAPI-04]
EC50 [1]: 6.5 nM

[11CH3]Oc1ccc2nccc(C(=O)NCC(=O)N3CCC[C@H]3C#N)c2c1 [[^11C]RJ001]
IC50 [1, 5]: 9.2 nM

[11CH3]Oc1ccc2nccc(C(=O)NCC(=O)N3CC(F)(F)C[C@H]3C#N)c2c1 [[^11C]RJ002]
IC50 [1, 5]: 8.5 nM

N#C[C@@H]1CCCN1C(=O)CNC(=O)c1ccnc2ccc(F)cc12 [compound 2]
IC50 [1, 6]: 10.3 nM

N#C[C@@H]1CC(F)(F)CN1C(=O)CNC(=O)c1ccnc2ccc(F)cc12 [compound 3]
Uptake in blocking group as % of vehicle group [2]: 79.38% | Uptake in blocking group as % of vehicle group [3]: 52.34% | Inhibition of tumor SUV [4]: over 50% | Inhibitory activity against FAP ([1]; ref previous SAR studies): nanomolar activity
